Several values for one entry are separate records, joined by “and”; a condition that tells them apart may be missing. Identical values can stand only once.
What was measured:
[1] = adjuvant-induced arthritis test (paw volume); type: in vivo, rat (male albino); conditions: rat, oral
[2] = ultraviolet-induced erythema blocking test, oral (modified Winder method); type: in vivo, guinea pig (male albino); conditions: Cavia porcellus, guinea pig, weighted scores 1.0-2.5 h after UV, dose which provides 50% inhibition
Protocol: The compounds of the present invention were evaluated for anti-inflammatoryactivity by the ultraviolet-induced erythema blocking test. The test procedures were a modification of the Winder method (Winder, C. V.; Wax, J.; Burr, V.; Been, M.; and Posiere, C. E.: A Study of Pharmacological Influences on Ultraviolet Erythema in Guinea Pigs. Arch. Int. Pharmacodyn. 116: 261, 1958). Male albino guinea pigs weighing 240-300 gm. were used. The hair on the back was clipped and chemically depilated 15-18 hours before each experiment. The animals were fasted overnight, and on the day of the experiment, were randomized and placed in clear plastic partitioned holders 10×20 cm. wide and 15 cm. high.
The compounds to be tested were suspended in 1% methyl cellulose in water, utilizing a tissue homogenizer. The suspensions were administered orally in a volume of 2.0 ml./kg. of body weight. Control animals received an equal amount of the vehicle.
The source of ultraviolet light was a Hanovia lamp (Kromayer-Model 10). A notebook reinforcement ring was placed upon the lens of the lamp to provide an area of contrast for grading purposes. The lens was then placed in contact with the skin of the guinea pig's back. Exposure time to UV was for a period of 4 seconds. Beginning one hour after exposure and thereafter at half-hour intervals for another 11/2 hours, the degree of resulting erythema was graded by an arbitrary scoring system based upon the degree of contrast and redness formed. Anti-inflammatory agents delay the development of the erythema and have their greatest effect at the initial grading periods. The scores were, therefore, weighted by factors of 4, 3, 2, and 1 at the 1.0, 1.5, 2.0, and 2.5 hour scoring times, respectively. The erythema was graded as follows:
Total scores from each treatment group of four guinea pigs were compared to the scores of the control group. The percent inhibition was calculated as follows: [formula] In the case of compounds showing inhibition, retesting was carried out at a plurality of doses to enable calculation of an ED50 for each such compound. "ED50 " designates that dose which provides 50% inhibition. Calculation of the ED50 was either by a standard linear regression method or by estimation from a dose-response curve of three or more points. The compounds so tested and their ED50 s were as follows: […]

[3] = carrageenin-induced hind paw inflammation; type: in vivo; conditions: Rattus norvegicus
Protocol: (§1) Representative compounds were also evaluated for anti-inflammatory activity in the test method described by C. A. Winter at 111 Proc. Soc. Exp. Biol. Med., 544 (1962). In this method, inflammation is created by injecting carrageenin into the hind paw of rats. Test compounds are administered prior to injection to determine percent inhibition of the subsequent inflammation, in comparison with control animals.

[4] = analgesic activity, acetic acid-induced writhing; type: in vivo, mouse (albino male); conditions: mouse, p.o., dose reducing writhing frequency by 50%; 30, 90, 180 minutes after administration
Protocol: Representative compounds were also evaluated for analgesic activity. The evaluation was conducted by using acetic acid-induced writhing in mice as the pain model. Clinically effective analgesis are effective when tested in this model: see Koster et al., "Acetic Acid for Analgesic Screening," 18 Fed. Proc. 412 (1959).
In a method similar to that reported by Koster et al., standard strain albino male mice weighing 20-22 grams were fasted overnight. The respective compound or vehicle (as control) was administered by gastric lavage (p.o.). Each compound was administered in an aqueous suspension of 1% methylcellulose in water. […] At 30, 90, and 180 minutes after administration, writhing was induced by the intraperitoneal administration of 55 mg./kg. of acetic acid (0.55%). Each treatment group consisted of 5 mice and separate groups were examined at each observation time. The total number of writhes for the treatment group were counted in a 10-minute observation period starting 5 minutes after the acetic acid administration. The treatment totals were compared to controls and a percent inhibition calculated as follows: [formula] […] An ED50, which represented the dose that would reduce the writhing frequency by 50%, was estimated from a dose-reponse curve of three or more points. A dose range was reported if only two points were availale for the dose response curve and they bracketed the 50% level. If data was available at 100 mg./kg., only, then the estimated ED50 was reported simply as less than 100 (<100).

[5] = carrageenin induced test, compound administered about 20 hours prior; type: in vivo; conditions: rat, dose 10 (unit not given), about 20 hours prior to test
Protocol: as §1
Each of 4-biphenylylacetylene and (4-(2-fluorophenyl)phenyl)acetylene was evaluated again in the carrageenin induced test method reported in Examples 60-80. However, in these tests, the compound was administered about 20 hours prior to the test procedures.

[6] = dose not printed (line below dose 25)

## C#Cc1ccc(-c2ccccc2)cc1 [4-biphenylylacetylene, 4-Biphenylylacetylene]
[1]; dose 0.3 (unit not given)
  Percent Inhibition of Volume Increase, Day 7: 15%
  Percent Inhibition of Volume Increase, Day 14: 0%
[1]; dose 1 (unit not given)
  Percent Inhibition of Volume Increase, Day 7: 0%
  Percent Inhibition of Volume Increase, Day 14: 0%
[1]; dose 3 (unit not given)
  Percent Inhibition of Volume Increase, Day 7: 14%
  Percent Inhibition of Volume Increase, Day 14: 7%
[1]; dose 25 (unit not given)
  Percent Inhibition of Volume Increase, Day 7: 29%
  Percent Inhibition of Volume Increase, Day 14: 37%
[1]; [6]
  Percent Inhibition of Volume Increase, Day 7: 37%
  Percent Inhibition of Volume Increase, Day 14: 23%
[2]
  ED50: 0.9 mg/kg
[3]; 0.5 mg./kg.
  inhibition in vivo at 0.5 mg/kg: 0%
[3]; 3 mg./kg.
  inhibition in vivo at 3 mg/kg: 36%
[3]; 5 mg./kg.
  inhibition in vivo at 5 mg/kg: 37%
[3]; 10 mg./kg.
  inhibition in vivo at 10 mg/kg: 42%
[3]; 20 mg./kg.
  inhibition in vivo at 20 mg/kg: 45%
[3]; 50 mg./kg.
  inhibition in vivo at 50 mg/kg: 41%
[4]
  Estimated ED50: 50 mg/kg
[5]
  % Inhibition: 44% and 28%
